From ChEMBL document CHEMBL1932962, “Discovery, design and synthesis of novel potent and selective sphingosine-1-phosphate 4 receptor (S1P₄-R) agonists” (Bioorg Med Chem Lett, 2012)
pEC50: −log10 of the molar value.

How the values were obtained:
[1] = target: Sphingosine 1-phosphate receptor 5 (Homo sapiens, UniProt Q9H228); experiment: Agonist activity at S1P5R up to 25 uM; format: functional
[2] = target: Sphingosine 1-phosphate receptor 1 (Homo sapiens, UniProt P21453); experiment: Agonist activity at S1P1R up to 25 uM; format: functional
[3] = target: Sphingosine 1-phosphate receptor 3 (Homo sapiens, UniProt Q99500); experiment: Agonist activity at S1P3R up to 25 uM; format: functional
[4] = target: Sphingosine 1-phosphate receptor 2 (Homo sapiens, UniProt O95136); experiment: Agonist activity at S1P2R up to 25 uM; format: functional
[5] = target: T1, Sphingosine 1-phosphate receptor 4 (Homo sapiens, UniProt O95977); experiment: Agonist activity at human S1P4R expressed in human U2OS cells containing EDG6 gene co-expressing GAL4-VP16 and beta-arrestin/TEV protease assessed as migration of VP16-GAL4 into nucleus by […] based beta-lactamase reporter gene assay; format: functional, cell-based
T1 sequence (O95977 whole entry): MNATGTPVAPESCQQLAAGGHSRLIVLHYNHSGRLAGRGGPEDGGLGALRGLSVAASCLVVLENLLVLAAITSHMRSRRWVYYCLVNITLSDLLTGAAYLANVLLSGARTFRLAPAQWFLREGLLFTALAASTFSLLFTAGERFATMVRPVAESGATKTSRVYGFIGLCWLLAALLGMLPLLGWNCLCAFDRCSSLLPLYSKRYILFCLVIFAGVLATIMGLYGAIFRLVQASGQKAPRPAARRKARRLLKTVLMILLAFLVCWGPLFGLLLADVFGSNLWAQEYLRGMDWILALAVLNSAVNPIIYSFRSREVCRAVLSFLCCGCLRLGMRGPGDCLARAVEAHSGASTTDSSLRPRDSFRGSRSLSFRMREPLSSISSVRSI

[6] = target: T1, Sphingosine 1-phosphate receptor 4; experiment: Agonist activity at human S1P4R expressed in human U2OS cells containing EDG6 gene co-expressing GAL4-VP16 and beta-arrestin/TEV protease assessed as migration of VP16-GAL4 into nucleus up to 25 uM by […] based beta-lactamase reporter gene assay; format: functional, cell-based
[7] = target: T2, Sphingosine 1-phosphate receptor 4 (Homo sapiens) (UniProt O95977); experiment: Agonist activity at human S1P4R expressed in human U2OS cells containing EDG6 gene co-expressing GAL4-VP16 and beta-arrestin/TEV protease assessed as migration of VP16-GAL4 into nucleus at 1300 nM by […] based beta-lactamase reporter gene assay; format: functional, cell-based
T2 sequence (whole entry): T1 sequence (O95977 whole entry)

[8] = target: T2, Sphingosine 1-phosphate receptor 4 (Homo sapiens); experiment: Agonist activity at human S1P4R expressed in human U2OS cells containing EDG6 gene co-expressing GAL4-VP16 and beta-arrestin/TEV protease assessed as migration of VP16-GAL4 into nucleus at 6000 nM by […] based beta-lactamase reporter gene assay; format: functional, cell-based
[9] = target: T2, Sphingosine 1-phosphate receptor 4 (Homo sapiens); experiment: Agonist activity at human S1P4R expressed in human U2OS cells containing EDG6 gene co-expressing GAL4-VP16 and beta-arrestin/TEV protease assessed as migration of VP16-GAL4 into nucleus at 50 uM by […] based beta-lactamase reporter gene assay; format: functional, cell-based
[10] = target: T2, Sphingosine 1-phosphate receptor 4 (Homo sapiens); experiment: Agonist activity at human S1P4R expressed in human U2OS cells containing EDG6 gene co-expressing GAL4-VP16 and beta-arrestin/TEV protease assessed as migration of VP16-GAL4 into nucleus at 2600 nM by […] based beta-lactamase reporter gene assay; format: functional, cell-based

Chain of Sphingosine 1-phosphate receptor 1 (P21453 whole entry): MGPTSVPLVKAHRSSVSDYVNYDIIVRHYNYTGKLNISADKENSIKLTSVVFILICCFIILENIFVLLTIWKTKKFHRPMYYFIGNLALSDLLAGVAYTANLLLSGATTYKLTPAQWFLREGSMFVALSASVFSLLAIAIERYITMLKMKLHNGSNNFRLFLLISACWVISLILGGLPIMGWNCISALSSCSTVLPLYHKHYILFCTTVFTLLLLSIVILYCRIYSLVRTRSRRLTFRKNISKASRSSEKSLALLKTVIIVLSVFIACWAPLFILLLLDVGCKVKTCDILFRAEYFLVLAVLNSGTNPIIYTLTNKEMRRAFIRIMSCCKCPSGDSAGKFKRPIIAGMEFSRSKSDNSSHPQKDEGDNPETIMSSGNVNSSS
Chain of Sphingosine 1-phosphate receptor 2 (O95136 whole entry, the tested form may be a part): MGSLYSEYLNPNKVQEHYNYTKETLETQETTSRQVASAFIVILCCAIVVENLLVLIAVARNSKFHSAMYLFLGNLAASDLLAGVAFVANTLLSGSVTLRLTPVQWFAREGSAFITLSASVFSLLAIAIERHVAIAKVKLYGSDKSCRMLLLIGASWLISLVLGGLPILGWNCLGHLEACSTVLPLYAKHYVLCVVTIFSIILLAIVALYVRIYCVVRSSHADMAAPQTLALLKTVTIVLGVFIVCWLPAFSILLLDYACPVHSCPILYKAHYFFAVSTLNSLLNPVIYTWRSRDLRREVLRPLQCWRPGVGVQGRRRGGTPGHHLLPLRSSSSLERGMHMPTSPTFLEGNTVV
Chain of Sphingosine 1-phosphate receptor 5 (Q9H228 whole entry): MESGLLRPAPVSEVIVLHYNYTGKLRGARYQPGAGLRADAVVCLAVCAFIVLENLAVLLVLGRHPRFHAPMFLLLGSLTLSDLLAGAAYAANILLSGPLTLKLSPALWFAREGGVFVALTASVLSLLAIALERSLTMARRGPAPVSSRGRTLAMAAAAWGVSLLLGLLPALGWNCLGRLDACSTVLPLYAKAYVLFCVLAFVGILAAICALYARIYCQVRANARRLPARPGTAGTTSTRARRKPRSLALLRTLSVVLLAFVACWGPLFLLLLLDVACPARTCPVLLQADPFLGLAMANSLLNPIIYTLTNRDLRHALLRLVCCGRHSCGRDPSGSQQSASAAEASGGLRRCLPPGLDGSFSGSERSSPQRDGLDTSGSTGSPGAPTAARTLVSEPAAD
Chain of Sphingosine 1-phosphate receptor 3 (Q99500 whole entry): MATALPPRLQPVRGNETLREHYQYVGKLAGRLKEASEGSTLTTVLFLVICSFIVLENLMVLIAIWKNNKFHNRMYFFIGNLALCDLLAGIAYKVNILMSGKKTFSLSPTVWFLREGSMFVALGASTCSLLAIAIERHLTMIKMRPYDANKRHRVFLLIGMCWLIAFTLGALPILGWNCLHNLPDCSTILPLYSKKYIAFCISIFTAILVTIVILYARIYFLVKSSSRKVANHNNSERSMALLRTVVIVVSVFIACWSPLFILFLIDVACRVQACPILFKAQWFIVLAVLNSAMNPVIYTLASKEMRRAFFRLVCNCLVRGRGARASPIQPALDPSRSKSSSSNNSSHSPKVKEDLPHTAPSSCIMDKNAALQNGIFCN

Row | SMILES | pEC50 [5] | EC50 [6] | further results
1 | Clc1ccc(OCCOc2ccc(Br)nc2Br)c(Cl)c1 | 7.34 | – | EC50 [1]: Not Active; EC50 [2]: Not Active; EC50 [3]: Not Active; EC50 [4]: Not Active
2 | Cc1ccc(NCCOc2ccc(Cl)cc2Cl)c([N+](=O)[O-])n1 | – | Not Active | –
3 | Cc1ccc(OCCCOc2ccc(Cl)cc2Cl)c([N+](=O)[O-])n1 | – | Not Active | –
4 | Cc1ccc(OCCOc2ccc(Cl)cc2)c([N+](=O)[O-])n1 | – | Not Active | –
5 | Cc1ccc(OCCOc2ccccc2)c([N+](=O)[O-])n1 | – | Not Active | –
6 | OCc1ccc(OCCOc2ccc(Cl)cc2Cl)c(Cl)n1 | 5.82 | – | –
7 | Cc1ccc(OCCCc2ccc(Cl)cc2Cl)c([N+](=O)[O-])n1 | 6.04 | – | –
8 | Cc1ccc(OCCOc2ccccc2Cl)c([N+](=O)[O-])n1 | – | Not Active | –
9 | Cc1ccc(OCCOc2ccc(Cl)cc2Cl)c([N+](=O)[O-])n1 | 6.79 | – | EC50 [1]: Not Active; EC50 [2]: Not Active; EC50 [3]: Not Active; EC50 [4]: Not Active
10 | Cc1ccc(OCCOc2ccc(Cl)cc2Cl)c(N)n1 | – | Not Active | –
11 | COc1cc(Cl)ccc1OCCOc1ccc(C)nc1[N+](=O)[O-] | 5.27 | – | –
12 | COC(=O)c1nc(C)ccc1OCCOc1ccc(Cl)cc1Cl | 5.32 | – | –
13 | Fc1ccc(OCCOc2ccc(Cl)cc2Cl)c(Br)n1 | 6.68 | – | –
14 | C=Cc1ccc(OCCOc2ccc(Cl)cc2Cl)c(Cl)n1 | 6.18 | – | –
15 | Cc1ccc(OCCOc2ccc(Br)cc2Cl)c([N+](=O)[O-])n1 | 6.66 | – | EC50 [1]: Not Active; EC50 [2]: Not Active; EC50 [3]: Not Active; EC50 [4]: Not Active
16 | OCc1ccc(OCCOc2ccc(Cl)cc2Cl)c(I)n1 | 6.54 | – | EC50 [1]: Not Active; EC50 [2]: Not Active; EC50 [3]: Not Active; EC50 [4]: Not Active
17 | O=[N+]([O-])c1ncccc1OCCOc1ccc(Cl)cc1Cl | 5.53 | – | –
18 | Cc1ccc(OCCOc2cc(Cl)cc([N+](=O)[O-])c2)c([N+](=O)[O-])n1 | 5.46 | – | –
19 | Cc1ccc(OCCOc2ccc(Cl)cc2Cl)c([N+](=O)[O-])c1 | 5.89 | – | inhibition [7]: 40%
20 | Cc1ccc(OCCOc2ccc(Cl)cc2Br)c([N+](=O)[O-])n1 | 6.63 | – | EC50 [1]: Not Active; EC50 [2]: Not Active; EC50 [3]: Not Active; EC50 [4]: Not Active
21 | Cc1ccc(OCCOc2ccc(C)nc2[N+](=O)[O-])c(C)c1 | 5.14 | – | –
22 | Cc1ccc(OCCOc2ccc(Cl)cc2Cl)c(-c2ccccc2)n1 | – | Not Active | –
23 | O=[N+]([O-])c1nc(Cl)ccc1OCCOc1ccc(Cl)cc1Cl | 6.52 | – | EC50 [1]: Not Active; EC50 [2]: Not Active; EC50 [3]: Not Active; EC50 [4]: Not Active
24 | Cc1ccc(OCCOc2ccc(Cl)cc2Cl)c(Br)n1 | 7.28 | – | EC50 [1]: Not Active; EC50 [2]: Not Active; EC50 [3]: Not Active; EC50 [4]: Not Active
25 | COCc1ccc(OCCOc2ccc(Cl)cc2Cl)c(Cl)n1 | – | Not Active | –
26 | Cc1ccc(OCCOc2ccc(Cl)cc2Cl)c(C(=O)N(C)C)n1 | – | Not Active | –
27 | Cc1ccc(OC2CCCC2Oc2ccc(Cl)cc2Cl)c([N+](=O)[O-])n1 (stereo unspecified) | – | Not Active | –

Row | SMILES | pEC50 [5] | EC50 [6] | further results
28 | Cc1ccc(OCCOc2cc(Cl)ccc2Cl)c([N+](=O)[O-])n1 | – | Not Active | –
29 | Cc1ccc(OCCOc2ccc(Cl)cc2Cl)c(I)n1 | 7.27 | – | EC50 [1]: Not Active; EC50 [2]: Not Active; EC50 [3]: Not Active; EC50 [4]: Not Active
30 | Cc1ccc(OCCOc2ccc([N+](=O)[O-])cc2F)c([N+](=O)[O-])n1 | 5.55 | – | –
31 | Cc1ccc(OCCOc2cccc(Cl)c2Cl)c([N+](=O)[O-])n1 | – | Not Active | –
32 | CCc1nc(C)ccc1OCCOc1ccc(Cl)cc1Cl | 5.14 | – | –
33 | Cc1ccc(OCCOc2ccc(-c3ccccc3)cc2Cl)c([N+](=O)[O-])n1 | – | Not Active | –
34 | O=Cc1ccc(OCCOc2ccc(Cl)cc2Cl)c(Cl)n1 | 5.74 | – | –
35 | FCc1ccc(OCCOc2ccc(Cl)cc2Cl)c(Cl)n1 | 7.35 | – | EC50 [1]: Not Active; EC50 [2]: Not Active; EC50 [3]: Not Active; EC50 [4]: Not Active
36 | Cc1cc(C)c(OCCOc2ccc(Cl)cc2Cl)c(Br)n1 | – | Not Active | –
37 | Cc1ccc(OC(=O)COc2ccc(Cl)cc2Cl)c([N+](=O)[O-])n1 | – | Not Active | –
38 | Cc1ccc2oc(COc3ccc(Cl)cc3Cl)nc2n1 | – | Not Active | –
39 | Cc1ccc(OCCOc2ccc(Cl)cc2F)c([N+](=O)[O-])n1 | 5.51 | – | –
40 | Cc1ccc(OCCOc2ccc(Cl)cc2Cl)c(CO)n1 | – | Not Active | –
41 | Cc1ccc(OCCc2ccc(Cl)cc2Cl)c([N+](=O)[O-])n1 | – | Not Active | –
42 | COc1ccc(OCCOc2ccc(C)nc2[N+](=O)[O-])c(Cl)c1 | 5.41 | – | –
43 | Clc1ccc(OCCOc2ccc(-c3ccccc3)nc2Br)c(Cl)c1 | 5.22 | – | inhibition [8]: 70%
44 | Cc1ccc(OCCOc2ccc(F)cc2F)c([N+](=O)[O-])n1 | – | – | inhibition [9]: 40%
45 | Cc1ccc(OCCOc2ccc(Cl)cc2Cl)c(C)n1 | 5.59 | – | inhibition [10]: 65%
46 | Cc1ccc(OCCOc2ccc(Cl)cc2Cl)c(C(=O)O)n1 | – | Not Active | –
47 | O=Cc1ccc(OCCOc2ccc(Cl)cc2Cl)c(I)n1 | 5.68 | – | –
48 | CC(C)=Cc1ccc(OCCOc2ccc(Cl)cc2Cl)c(Cl)n1 | – | Not Active | –
49 | Cc1ccc(OCCOc2ccc(Br)cc2C(F)(F)F)c([N+](=O)[O-])n1 | 6.22 | – | EC50 [1]: Not Active; EC50 [2]: Not Active; EC50 [3]: Not Active; EC50 [4]: Not Active
50 | Cc1ccc(OCCOc2ccc(F)cc2Cl)c([N+](=O)[O-])n1 | 5.59 | – | –
51 | Cc1ccc(OCCOc2ccc(Cl)c(Cl)c2)c([N+](=O)[O-])n1 | – | Not Active | –
52 | Clc1ccc(OCCOc2cccnc2Br)c(Cl)c1 | 5.89 | – | –
53 | Cc1ccc(OCCOc2c(Cl)cc(Cl)cc2Cl)c([N+](=O)[O-])n1 | 6.24 | – | EC50 [1]: Not Active; EC50 [2]: Not Active; EC50 [3]: Not Active; EC50 [4]: Not Active
54 | Cc1ccc(OCCOc2ccc(Cl)cc2Cl)cn1 | – | Not Active | –
